In the test the test system is E. coli containing an inducible luciferase coding plasmid. Briefly: Luciferin/luciferase-based permeabilization / cell lysis assay. Details: species or system Escherichia coli. To be noted: permeabilization of the outer membrane allowing luciferin to enter the cell. As for the experimental part:
Using a technique described by J. M. Shupp, S. E. Travis, L. B. Price, R. F. Shand, P. Keim, RAPID BACTERIAL PERMEABILIZATION REAGENT USEFUL FOR ENZYME ASSAYS, Biotechniques, 1995, vol.
In this assay, E. coli containing an inducible luciferase coding plasmid was incubated with the inducing agent […], then treated with a lysis buffer containing either PMB or one of the cholic acid derivatives, and Triton X-100. Luciferin and ATP were then added. […] The concentrations of the membrane disrupting agents (PMB and the cholic acid derivatives) were varied, and the resulting luminescence was measured.

As for `C[C@H](CCCN(C)Cc1ccccc1)[C@H]1CC[C@H]2[C@@H]3[C@H](OCCCN)C[C@@H]4C[C@H](OCCCN)CC[C@]4(C)[C@H]3C[C@H](OCCCN)[C@]12C` [Compound 2], the half maximum luminescence was determined as 7 µg/mL.

Values taken from patent US7598234B2, “Steroid derived antibiotics” (Brigham Young University, priority 1998, dated 2009).
